For this assay, the target named is T1, recombinant AG1 protein (SEQ ID No:13), E-α-bisabolene synthase (Abies grandis, UniProt O81086).
T1 construct: GST (fusion partner of vector pGEX-4T-2); made in house; host or cells: E. coli XL1-Blue/pGAG1
T1 sequence (O81086 1-817): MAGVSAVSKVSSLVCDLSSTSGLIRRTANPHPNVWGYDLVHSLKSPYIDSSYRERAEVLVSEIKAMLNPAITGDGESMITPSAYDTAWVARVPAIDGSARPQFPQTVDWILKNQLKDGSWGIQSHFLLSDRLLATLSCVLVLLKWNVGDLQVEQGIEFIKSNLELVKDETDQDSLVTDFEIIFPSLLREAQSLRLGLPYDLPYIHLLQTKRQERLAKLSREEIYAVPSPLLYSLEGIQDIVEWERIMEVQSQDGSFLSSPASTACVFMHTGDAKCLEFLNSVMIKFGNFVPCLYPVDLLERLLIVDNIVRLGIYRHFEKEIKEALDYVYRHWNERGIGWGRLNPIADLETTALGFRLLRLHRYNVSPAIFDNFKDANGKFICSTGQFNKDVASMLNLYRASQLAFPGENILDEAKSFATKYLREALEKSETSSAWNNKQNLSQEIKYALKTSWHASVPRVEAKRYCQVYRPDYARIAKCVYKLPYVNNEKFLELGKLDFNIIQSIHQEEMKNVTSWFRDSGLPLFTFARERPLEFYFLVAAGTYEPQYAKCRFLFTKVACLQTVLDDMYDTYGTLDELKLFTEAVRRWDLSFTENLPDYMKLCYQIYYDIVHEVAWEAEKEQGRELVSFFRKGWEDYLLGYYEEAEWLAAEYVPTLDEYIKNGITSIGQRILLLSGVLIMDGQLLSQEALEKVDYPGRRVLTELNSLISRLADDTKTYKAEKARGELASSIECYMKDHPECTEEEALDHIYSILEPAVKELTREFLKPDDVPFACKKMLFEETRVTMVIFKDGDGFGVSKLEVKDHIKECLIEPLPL
The assay is described as follows: Monoterpene, sesquiterpene and diterpene synthase assays of recombinant AG1 protein expressed in E. coli. Type of assay: biochemical. As to conditions: extracts of XL1-Blue/pGAG1, 31° C., 2 h. The method, then: Expression of cDNA Clone AG1 (SEQ ID No:12) in E. coli. Plasmid pGAG1 was transformed into E. coli XL1-Blue (Sambrook, J., et al., (1989) Molecular Cloning: A Laboratory Manual (Cold Spring Harbor Lab., Cold Spring Harbor, N.Y.), 2nd Ed). The resulting bacterial strain E. coli XL1-Blue/pGAG1 was grown at 37° C. in 5 ml of LB medium (Sambrock, J., et al., (1989) Molecular Cloning. A Laboratory Manual (Cold Spring Harbor Lab., Cold Spring Harbor, N.Y.), 2nd Ed) supplemented with 100 μg ampicillin/ml and 12.5 μg tetracycline/ml to A600=1.0, then induced by addition of 1 mM isopropyl-1-thio-β-D-galactopyranoside and grown for another 12 h at 20° C. Cells were harvested by centrifugation (2000×g, 10 min) and resuspended in either 1 ml monoterpene synthase assay buffer, 1 ml sesquiterpene synthase assay buffer, or 1 ml diterpene synthase assay buffer (Bohlmann, J., et al., J. Biol. Chem. 272:21784-21792(1997)). […]
Characterization of Products of Recombinant E-α-Bisabolene Synthase Encoded by cDNA Clone AG1 (SEQ ID No:12) in E. coli. […] Mass spectra were compared to those of authentic standards and analyzed by Hewlett-Packard Chemstation software. […]

The text below walks through data of patent US6451576B1, “Sesquiterpene synthases from grand fir (Abies grandis), and methods of use” (Washington State University Research Foundation, priority 1998, dated 2002).

Structures are written as SMILES.

For the compound `CC(C)=CCC/C(C)=C/COP(=O)(O)OP(=O)(O)O` [geranyl diphosphate, reference compound], the “conversion of substrate to terpene olefin” value is given as “inefficiently converted”.

As for `CC(C)=CCC/C(C)=C/CC/C(C)=C/CC/C(C)=C/COP(=O)(O)OP(=O)(O)O` [geranylgeranyl diphosphate, reference compound], the “conversion of substrate to terpene olefin” value is “no diterpene synthase activity”.
